# Tests used:
# S. aureus = experiment: In vitro activity (MIC) against S. aureus strains; details: Staphylococcus aureus
# S. xylosus = experiment: In vitro activity (MIC) against S. xylosus strains
# S. epidermidis = experiment: In vitro activity (MIC) against S. epidermidis strains
# [1] = molecular target: T1, N-Formyl Peptide Receptor FPR1 (Homo sapiens, UniProt P21462); experiment: Radioligand binding assay, N-Formyl Peptide Receptor FPR1; details: CONC. 10 μM, hum
# T1 sequence (P21462 1-350): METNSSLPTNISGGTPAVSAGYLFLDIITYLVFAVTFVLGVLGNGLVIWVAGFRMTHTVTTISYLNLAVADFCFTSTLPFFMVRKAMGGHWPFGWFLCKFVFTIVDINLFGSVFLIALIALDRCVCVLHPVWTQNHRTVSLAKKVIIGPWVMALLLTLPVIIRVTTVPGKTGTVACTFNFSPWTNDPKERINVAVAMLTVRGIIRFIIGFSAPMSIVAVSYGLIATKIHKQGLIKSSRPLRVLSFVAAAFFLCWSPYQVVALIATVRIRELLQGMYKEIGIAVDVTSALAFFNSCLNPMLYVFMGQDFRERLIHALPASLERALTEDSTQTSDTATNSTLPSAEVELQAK
# Procedure: Methods employed in this study have been adapted from the scientific literature to maximize reliability and reproducibility. Reference standards were run as an integral part of each assay to ensure the validity of the results obtained. Assays were performed under conditions described in the accompanying “Methods” section below. The literature reference(s) for each assay are in the “Literature References” section.
# Where presented, IC50 values were determined by a non-linear, least squares regression analysis using MathIQ™ (ID Business Solutions Ltd., UK). Where inhibition constants (KI) are presented, the KI values were calculated using the equation of Cheng and Prusoff (Cheng, Y., Prusoff, W. H., Biochem. Pharmacol. 22:3099-3108, 1973) using the observed IC50 of the tested compound, the concentration of radioligand employed in the assay, and the historical values for the KD of the ligand (obtained experimentally at Ricerca Biosciences, LLC). Where presented, the Hill coefficient (nH), defining the slope of the competitive binding curve, was calculated using MathIQ™. […] Where IC50, KI, and/or nH data are presented without Standard Error of the Mean (SEM), data are insufficient to be quantitative, and the values presented (KI, IC50, nH) should be interpreted with caution. […]
smiles,measurement,setting,value
COC1/C=C/O[C@@]2(C)Oc3c(C)c(O)c4c(O)c(c5c(c4c3C2=O)NC2C=C(C)C=CN52)NC(=O)/C(C)=C\C=C\C(C)C(O)C(C)C(O)C(C)C(O)C1C (stereo partly drawn) [25-desacetyl rifaximin],MIC,S. aureus; strain ATCC S. aureus 29213,0.5 µg/mL
same,MIC,S. aureus; strain S. aureus 215,16 µg/mL
same,MIC,S. aureus; strain S. aureus 234,2 µg/mL
same,MIC,S. aureus; strain S. aureus 236,16 µg/mL
same,MIC,S. aureus; strain S. aureus 237,2 µg/mL
same,MIC,S. aureus; strain S. aureus 238,0.25 µg/mL
same,MIC,S. aureus; strain S. aureus 246,2 µg/mL
same,MIC,S. aureus; strain S. aureus 252,4 µg/mL
same,MIC,S. aureus; strain S. aureus 253,1 µg/mL
same,MIC,S. aureus; strain S. aureus 267,16 µg/mL
same,MIC,S. aureus; strain S. aureus 272,2 µg/mL
same,MIC,S. aureus; strain S. aureus 279,0.25 µg/mL
same,MIC,S. aureus; strain S. aureus 327,4 µg/mL
same,MIC,S. aureus; strain S. aureus 328,2 µg/mL
same,MIC,S. aureus; strain S. aureus 329,4 µg/mL
same,MIC,S. aureus; strain S. aureus 339,16 µg/mL
same,MIC,S. aureus; strain S. aureus 345,2 µg/mL
same,MIC,S. aureus; strain S. aureus 355,2 µg/mL
same,MIC,S. aureus; strain S. aureus 406,> 16 µg/mL
same,MIC,S. aureus; strain S. aureus 408,2 µg/mL
same,MIC,S. aureus; strain S. aureus 409,1 µg/mL
same,MIC,S. aureus; strain S. aureus 416,2 µg/mL
same,MIC,S. aureus; strain S. aureus 425,> 16 µg/mL
same,MIC,S. aureus; strain S. aureus 436,2 µg/mL
same,MIC,S. aureus; strain S. aureus 475,4 µg/mL
same,MIC,S. xylosus; Staphylococcus xylosus,2 µg/mL
same,MIC,S. xylosus; strain S. xylosus 346,2 µg/mL
same,MIC,S. epidermidis; Staphylococcus epidermidis,0.12 µg/mL
same,MIC,S. epidermidis; strain S. epidermidis 354,0.12 µg/mL
same,inhibition at 10 µM,[1],> 50%
"CO[C@H]1/C=C/O[C@@]2(C)Oc3c(C)c(O)c4c(O)c(c5c(nc6cc(C)ccn65)c4c3C2=O)NC(=O)/C(C)=C\C=C\[C@H](C)[C@H](O)[C@@H](C)[C@@H](O)[C@@H](C)[C@H](OC(C)=O)[C@@H]1C [Rifaximin, reference compound]",MIC,S. aureus; strain ATCC S. aureus 29213,0.015 µg/mL
same,MIC,S. aureus; strain S. aureus 215,1 µg/mL
same,MIC,S. aureus; strain S. aureus 234,0.25 µg/mL
same,MIC,S. aureus; strain S. aureus 236,1 µg/mL
same,MIC,S. aureus; strain S. aureus 237,0.06 µg/mL
same,MIC,S. aureus; strain S. aureus 238,0.03 µg/mL
same,MIC,S. aureus; strain S. aureus 246,0.5 µg/mL
same,MIC,S. aureus; strain S. aureus 252,0.5 µg/mL
same,MIC,S. aureus; strain S. aureus 253,0.12 µg/mL
same,MIC,S. aureus; strain S. aureus 267,1 µg/mL
same,MIC,S. aureus; strain S. aureus 272,0.25 µg/mL
same,MIC,S. aureus; strain S. aureus 279,0.03 µg/mL
same,MIC,S. aureus; strain S. aureus 327,1 µg/mL
same,MIC,S. aureus; strain S. aureus 328,0.5 µg/mL
same,MIC,S. aureus; strain S. aureus 329,1 µg/mL
same,MIC,S. aureus; strain S. aureus 339,1 µg/mL
same,MIC,S. aureus; strain S. aureus 345,0.25 µg/mL
same,MIC,S. aureus; strain S. aureus 355,0.5 µg/mL
same,MIC,S. aureus; strain S. aureus 406,0.5 µg/mL
same,MIC,S. aureus; strain S. aureus 408,0.25 µg/mL
same,MIC,S. aureus; strain S. aureus 409,0.12 µg/mL
same,MIC,S. aureus; strain S. aureus 416,0.5 µg/mL
same,MIC,S. aureus; strain S. aureus 425,0.5 µg/mL
same,MIC,S. aureus; strain S. aureus 436,0.06 µg/mL
same,MIC,S. aureus; strain S. aureus 475,0.5 µg/mL
same,MIC,S. xylosus; Staphylococcus xylosus,0.5 µg/mL
same,MIC,S. xylosus; strain S. xylosus 346,0.5 µg/mL
same,MIC,S. epidermidis; Staphylococcus epidermidis,0.06 µg/mL
same,MIC,S. epidermidis; strain S. epidermidis 354,0.06 µg/mL
same,inhibition at 10 µM,[1],< 50%
